Laboratory results taken from ChEMBL document CHEMBL4507268 (2021).

What was measured:
Settings in all cases: Compound concentration 1000.0 nM
[1] = target: Phosphatidylinositol 4,5-bisphosphate 3-kinase catalytic subunit beta isoform (Homo sapiens) (UniProt P42338)
[2] = target: Serine/threonine-protein kinase/endoribonuclease IRE1 (Homo sapiens) (UniProt O75460)
[3] = system: Receptor-type tyrosine-protein kinase FLT3 (Homo sapiens), P36888 [UNDEFINED MUTATION]
[4] = target: Casein kinase I isoform alpha-like (Homo sapiens) (UniProt Q8N752)
[5] = target: Phosphatidylinositol 4,5-bisphosphate 3-kinase catalytic subunit gamma isoform (Homo sapiens) (UniProt P48736)
[6] = target: Ribosomal protein S6 kinase alpha-2 (Homo sapiens) (UniProt Q15349)
[7] = target: T1, Dual specificity mitogen-activated protein kinase kinase 3 (Homo sapiens) (UniProt P46734)
T1 sequence (whole entry): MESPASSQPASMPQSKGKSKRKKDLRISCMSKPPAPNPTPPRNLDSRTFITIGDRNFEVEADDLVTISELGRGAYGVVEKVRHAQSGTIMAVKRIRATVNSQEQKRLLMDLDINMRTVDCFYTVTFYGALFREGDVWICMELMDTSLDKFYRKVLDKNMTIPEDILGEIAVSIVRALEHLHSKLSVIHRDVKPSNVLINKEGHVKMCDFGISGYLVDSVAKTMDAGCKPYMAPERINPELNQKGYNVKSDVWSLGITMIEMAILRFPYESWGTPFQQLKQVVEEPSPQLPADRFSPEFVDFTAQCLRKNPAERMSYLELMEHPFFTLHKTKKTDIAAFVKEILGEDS

[8] = target: Calcium/calmodulin-dependent protein kinase type II subunit delta (Homo sapiens) (UniProt Q13557)
Calcium/calmodulin-dependent protein kinase type II subunit delta (Homo sapiens), sequence (Q13557 whole entry, canonical isoform): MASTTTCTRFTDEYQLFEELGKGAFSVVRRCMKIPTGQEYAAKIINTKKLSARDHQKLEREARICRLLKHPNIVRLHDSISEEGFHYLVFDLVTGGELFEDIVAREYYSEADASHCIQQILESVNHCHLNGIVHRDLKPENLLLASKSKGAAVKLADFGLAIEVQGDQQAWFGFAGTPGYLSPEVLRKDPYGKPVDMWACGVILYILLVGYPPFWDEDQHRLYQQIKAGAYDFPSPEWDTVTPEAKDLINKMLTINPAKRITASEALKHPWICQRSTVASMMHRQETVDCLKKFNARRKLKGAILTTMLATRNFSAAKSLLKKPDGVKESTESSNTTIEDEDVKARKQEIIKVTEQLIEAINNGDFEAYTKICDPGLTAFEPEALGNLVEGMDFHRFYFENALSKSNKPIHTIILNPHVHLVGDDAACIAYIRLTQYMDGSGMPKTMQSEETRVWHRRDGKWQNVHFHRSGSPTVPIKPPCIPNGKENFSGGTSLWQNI

[9] = target: Casein kinase I isoform gamma-3 (Homo sapiens) (UniProt Q9Y6M4)
[10] = target: Dual specificity mitogen-activated protein kinase kinase 2 (Homo sapiens) (UniProt P36507)
[11] = system: Epidermal growth factor receptor (Homo sapiens), P00533 [UNDEFINED MUTATION]
Epidermal growth factor receptor (Homo sapiens), P00533 [UNDEFINED MUTATION], sequence (P00533 whole entry, looked up, change not shown): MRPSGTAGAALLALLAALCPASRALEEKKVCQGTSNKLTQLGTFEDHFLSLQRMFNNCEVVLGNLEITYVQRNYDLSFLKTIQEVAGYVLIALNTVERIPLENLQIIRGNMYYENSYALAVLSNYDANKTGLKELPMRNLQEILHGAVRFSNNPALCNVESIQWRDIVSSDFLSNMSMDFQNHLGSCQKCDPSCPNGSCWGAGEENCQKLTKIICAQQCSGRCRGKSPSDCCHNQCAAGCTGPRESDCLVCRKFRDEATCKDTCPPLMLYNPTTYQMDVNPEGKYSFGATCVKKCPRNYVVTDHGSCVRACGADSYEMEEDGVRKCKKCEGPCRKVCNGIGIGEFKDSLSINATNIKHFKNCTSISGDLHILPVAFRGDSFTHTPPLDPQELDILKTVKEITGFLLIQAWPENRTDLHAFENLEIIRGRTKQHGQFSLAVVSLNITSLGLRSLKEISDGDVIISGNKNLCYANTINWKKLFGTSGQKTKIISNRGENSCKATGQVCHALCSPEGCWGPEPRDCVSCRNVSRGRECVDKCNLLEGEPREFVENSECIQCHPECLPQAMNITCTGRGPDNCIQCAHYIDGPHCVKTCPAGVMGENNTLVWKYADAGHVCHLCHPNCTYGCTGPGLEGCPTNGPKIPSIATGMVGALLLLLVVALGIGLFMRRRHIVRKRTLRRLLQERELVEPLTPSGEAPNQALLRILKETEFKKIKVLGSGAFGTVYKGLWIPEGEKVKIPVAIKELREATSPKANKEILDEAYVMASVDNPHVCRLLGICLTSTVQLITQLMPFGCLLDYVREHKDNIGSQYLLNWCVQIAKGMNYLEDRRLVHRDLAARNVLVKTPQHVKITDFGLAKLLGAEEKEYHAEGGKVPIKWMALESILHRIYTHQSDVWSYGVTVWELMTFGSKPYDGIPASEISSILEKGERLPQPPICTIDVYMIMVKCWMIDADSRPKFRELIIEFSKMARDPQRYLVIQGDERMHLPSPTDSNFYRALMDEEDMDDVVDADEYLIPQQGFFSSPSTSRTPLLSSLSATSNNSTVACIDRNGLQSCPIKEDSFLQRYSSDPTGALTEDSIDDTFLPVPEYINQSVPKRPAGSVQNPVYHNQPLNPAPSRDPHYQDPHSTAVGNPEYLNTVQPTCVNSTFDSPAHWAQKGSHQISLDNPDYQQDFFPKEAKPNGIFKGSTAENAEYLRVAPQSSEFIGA

[12] = target: Receptor-interacting serine/threonine-protein kinase 2 (Homo sapiens) (UniProt O43353)
Receptor-interacting serine/threonine-protein kinase 2 (Homo sapiens), sequence (O43353 whole entry, canonical isoform): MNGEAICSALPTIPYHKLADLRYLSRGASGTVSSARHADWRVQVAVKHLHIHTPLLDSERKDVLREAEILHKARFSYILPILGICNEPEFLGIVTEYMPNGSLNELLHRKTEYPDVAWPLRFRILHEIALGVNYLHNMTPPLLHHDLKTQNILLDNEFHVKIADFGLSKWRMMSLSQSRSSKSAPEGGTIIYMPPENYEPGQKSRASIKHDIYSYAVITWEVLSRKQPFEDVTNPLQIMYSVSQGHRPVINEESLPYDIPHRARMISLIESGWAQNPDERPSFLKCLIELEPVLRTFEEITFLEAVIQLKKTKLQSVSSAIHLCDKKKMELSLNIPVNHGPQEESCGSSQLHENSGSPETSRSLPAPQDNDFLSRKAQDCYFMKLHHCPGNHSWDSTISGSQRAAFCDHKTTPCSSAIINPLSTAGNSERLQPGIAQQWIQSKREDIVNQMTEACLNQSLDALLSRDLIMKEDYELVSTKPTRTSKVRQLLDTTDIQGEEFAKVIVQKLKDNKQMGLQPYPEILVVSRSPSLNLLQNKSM

[13] = target: Casein kinase I isoform delta (Homo sapiens) (UniProt P48730)
[14] = target: Casein kinase II subunit alpha (Homo sapiens) (UniProt P68400)
Casein kinase II subunit alpha (Homo sapiens), sequence (P68400 whole entry, looked up): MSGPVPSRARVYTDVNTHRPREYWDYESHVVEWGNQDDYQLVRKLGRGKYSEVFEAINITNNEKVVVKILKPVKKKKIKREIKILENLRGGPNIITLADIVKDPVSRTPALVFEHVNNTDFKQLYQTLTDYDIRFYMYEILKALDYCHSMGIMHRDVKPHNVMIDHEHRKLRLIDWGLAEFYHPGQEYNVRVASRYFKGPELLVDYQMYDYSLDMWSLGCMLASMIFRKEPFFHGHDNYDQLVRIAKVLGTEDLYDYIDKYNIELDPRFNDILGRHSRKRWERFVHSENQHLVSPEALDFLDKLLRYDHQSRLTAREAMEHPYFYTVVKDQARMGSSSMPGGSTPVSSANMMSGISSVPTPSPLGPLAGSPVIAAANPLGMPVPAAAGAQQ

[15] = target: Tyrosine-protein kinase Fgr (Homo sapiens) (UniProt P09769)
Tyrosine-protein kinase Fgr (Homo sapiens), sequence (P09769 2-529 limits assumed): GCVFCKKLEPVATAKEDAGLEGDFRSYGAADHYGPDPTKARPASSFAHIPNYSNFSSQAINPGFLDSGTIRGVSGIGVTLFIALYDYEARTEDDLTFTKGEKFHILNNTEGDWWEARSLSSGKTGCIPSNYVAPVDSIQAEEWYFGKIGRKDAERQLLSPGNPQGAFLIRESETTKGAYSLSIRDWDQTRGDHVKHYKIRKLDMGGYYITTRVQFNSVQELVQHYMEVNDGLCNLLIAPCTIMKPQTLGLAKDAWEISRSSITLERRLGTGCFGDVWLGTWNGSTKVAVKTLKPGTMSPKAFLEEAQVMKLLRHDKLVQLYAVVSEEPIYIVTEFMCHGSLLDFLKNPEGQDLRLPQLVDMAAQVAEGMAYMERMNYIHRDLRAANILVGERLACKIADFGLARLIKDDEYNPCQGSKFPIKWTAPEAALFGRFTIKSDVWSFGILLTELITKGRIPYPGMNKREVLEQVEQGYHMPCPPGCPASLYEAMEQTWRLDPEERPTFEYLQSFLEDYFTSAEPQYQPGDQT

[16] = target: Atypical kinase COQ8A, mitochondrial (Homo sapiens) (UniProt Q8NI60)
[17] = target: T2, Tyrosine-protein kinase ITK/TSK (Homo sapiens) (UniProt Q08881)
T2 sequence (whole entry): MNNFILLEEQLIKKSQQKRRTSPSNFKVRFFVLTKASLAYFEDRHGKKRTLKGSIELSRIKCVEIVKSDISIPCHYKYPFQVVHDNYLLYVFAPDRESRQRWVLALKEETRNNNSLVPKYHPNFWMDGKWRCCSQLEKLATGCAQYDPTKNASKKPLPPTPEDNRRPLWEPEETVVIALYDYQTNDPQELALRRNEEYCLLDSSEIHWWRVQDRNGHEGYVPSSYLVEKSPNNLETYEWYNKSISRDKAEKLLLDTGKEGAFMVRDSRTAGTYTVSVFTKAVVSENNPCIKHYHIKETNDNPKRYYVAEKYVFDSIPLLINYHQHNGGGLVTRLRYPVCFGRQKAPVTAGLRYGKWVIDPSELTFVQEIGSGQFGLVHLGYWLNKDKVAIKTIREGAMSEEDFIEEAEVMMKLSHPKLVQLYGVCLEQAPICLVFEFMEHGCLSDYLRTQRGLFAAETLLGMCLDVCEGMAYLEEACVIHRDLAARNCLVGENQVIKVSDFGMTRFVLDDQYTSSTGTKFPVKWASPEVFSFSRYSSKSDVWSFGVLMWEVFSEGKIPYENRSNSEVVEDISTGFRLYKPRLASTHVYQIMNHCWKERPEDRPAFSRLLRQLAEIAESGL

[18] = target: Serine/threonine-protein kinase 38 (Homo sapiens) (UniProt Q15208)
Serine/threonine-protein kinase 38 (Homo sapiens), sequence (Q15208 2-465 limits assumed): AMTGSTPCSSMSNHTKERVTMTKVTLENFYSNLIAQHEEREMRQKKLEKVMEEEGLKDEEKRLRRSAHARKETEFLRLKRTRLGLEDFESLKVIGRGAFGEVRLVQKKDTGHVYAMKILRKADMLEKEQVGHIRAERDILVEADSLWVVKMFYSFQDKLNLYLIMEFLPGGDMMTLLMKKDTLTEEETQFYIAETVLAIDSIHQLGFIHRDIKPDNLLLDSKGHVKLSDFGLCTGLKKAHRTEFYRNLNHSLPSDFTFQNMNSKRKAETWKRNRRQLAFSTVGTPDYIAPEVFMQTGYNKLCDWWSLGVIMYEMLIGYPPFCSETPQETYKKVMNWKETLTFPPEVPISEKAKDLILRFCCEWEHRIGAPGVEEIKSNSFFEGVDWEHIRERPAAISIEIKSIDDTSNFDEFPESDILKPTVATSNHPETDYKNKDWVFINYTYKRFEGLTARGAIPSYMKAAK

[19] = target: Mitogen-activated protein kinase 1 (Homo sapiens) (UniProt P28482)
Mitogen-activated protein kinase 1 (Homo sapiens), sequence (P28482 whole entry): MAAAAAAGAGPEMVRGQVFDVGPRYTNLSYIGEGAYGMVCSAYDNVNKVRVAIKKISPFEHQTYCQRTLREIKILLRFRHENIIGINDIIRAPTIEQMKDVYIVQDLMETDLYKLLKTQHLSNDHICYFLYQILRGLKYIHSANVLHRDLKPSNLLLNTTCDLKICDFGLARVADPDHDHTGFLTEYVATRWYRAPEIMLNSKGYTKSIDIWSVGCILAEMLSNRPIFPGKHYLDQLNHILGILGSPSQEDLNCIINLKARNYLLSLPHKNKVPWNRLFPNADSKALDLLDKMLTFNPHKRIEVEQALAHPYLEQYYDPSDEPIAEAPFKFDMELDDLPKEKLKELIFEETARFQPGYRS

Measured: residual activity

Serine/threonine-protein kinase/endoribonuclease IRE1 (Homo sapiens), sequence (O75460 19-977 limits assumed): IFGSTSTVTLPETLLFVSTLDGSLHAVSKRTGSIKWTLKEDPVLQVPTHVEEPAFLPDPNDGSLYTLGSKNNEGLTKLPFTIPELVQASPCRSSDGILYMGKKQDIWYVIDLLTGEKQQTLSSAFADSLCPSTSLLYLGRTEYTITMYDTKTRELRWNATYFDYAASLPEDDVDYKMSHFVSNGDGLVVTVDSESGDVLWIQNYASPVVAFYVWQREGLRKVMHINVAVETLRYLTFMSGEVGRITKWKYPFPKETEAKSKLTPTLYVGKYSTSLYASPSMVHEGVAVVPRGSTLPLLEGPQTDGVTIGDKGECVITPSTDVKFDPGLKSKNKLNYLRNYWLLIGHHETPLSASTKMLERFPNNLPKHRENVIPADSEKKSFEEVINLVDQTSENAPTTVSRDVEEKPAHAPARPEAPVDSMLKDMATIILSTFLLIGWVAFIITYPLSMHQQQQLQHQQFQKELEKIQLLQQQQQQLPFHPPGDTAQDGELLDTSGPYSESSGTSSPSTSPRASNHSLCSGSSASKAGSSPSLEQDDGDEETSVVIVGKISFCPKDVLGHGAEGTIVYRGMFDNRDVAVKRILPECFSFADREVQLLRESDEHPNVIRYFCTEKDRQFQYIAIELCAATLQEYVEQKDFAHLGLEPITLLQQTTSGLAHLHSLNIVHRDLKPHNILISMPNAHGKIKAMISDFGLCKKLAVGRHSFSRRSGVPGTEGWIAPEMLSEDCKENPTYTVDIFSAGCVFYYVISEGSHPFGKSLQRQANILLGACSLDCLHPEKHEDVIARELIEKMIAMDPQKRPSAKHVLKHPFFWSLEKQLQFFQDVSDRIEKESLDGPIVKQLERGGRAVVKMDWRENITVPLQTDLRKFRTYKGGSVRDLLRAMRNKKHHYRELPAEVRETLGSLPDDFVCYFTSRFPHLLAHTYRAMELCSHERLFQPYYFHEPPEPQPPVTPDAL

Cc1nc(C2CCN(C(=O)c3ccc(OC(F)(F)F)cc3N)CC2)c2ncc(N3CCN(C)CC3)cc2n1 [BAY-693]
inactive: [1] 94% | [2] 100% | [3] 84% | [4] 100% | [5] 79% | [6] 100% | [7] 98% | [8] 100% | [9] 100% | [10] 100% | [11] 91% | [12] 94% | [13] 83% | [14] 99% | [15] 100% | [16] 100% | [17] 89% | [18] 94% | [19] 98%

CN1CCN(c2cnc3c(C4CCN(C(=O)c5ccc(OC(F)(F)F)cc5N)CC4)ncnc3c2)CC1 [BAY-885]
inactive: [1] 100% | [2] 99% | [3] 100% | [4] 100% | [5] 95% | [6] 100% | [7] 94% | [8] 100% | [9] 100% | [10] 100% | [11] 77% | [12] 100% | [13] 100% | [14] 100% | [15] 100% | [16] 100% | [17] 100% | [18] 80% | [19] 94%
